Measured values: the supplement of paper PMC5908809

How the values were obtained:
[1] = system: normal NK cells expanded with K562-aAPC; assay: percent inhibition of viability; higher = more inhibition; conditions: 72 h, IL-2 2.5 ng/mL
Method: (§1)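 Drug sensitivity and resistance testing on K562-aAPC-expanded normal NK cells: 5 concentrations (10-fold steps over a 10,000-fold range), 72 h at 37 °C, viability by CellTiter-Glo normalised to DMSO and benzethonium chloride controls; DSS from the fitted curve.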

[2] = system: KHYG-1 (IL-2 2.5 ng/mL); assay: drug sensitivity score (DSS) (DSS units); higher = more sensitive; extreme values may be limits of the assay; conditions: 72 h
[3] = system: normal primary NK cells, pool 1 (3 donors), resting (IL-2 0 ng/mL); assay: as above; conditions: 72 h
[4] = system: normal primary NK cells, pool 1 (3 donors) (IL-2 2.5 ng/mL); assay: as above; conditions: 72 h
[5] = system: SNK-6 (IL-2 2.5 ng/mL); assay: as above; conditions: 72 h
[6] = system: normal primary NK cells, pool 3 (3 donors) (IL-2 2.5 ng/mL); assay: as above; conditions: 72 h
[7] = system: normal primary NK cells, pool 2 (3 donors) (IL-2 2.5 ng/mL); assay: as above; conditions: 72 h
[8] = system: KAI3 (IL-2 2.5 ng/mL); assay: as above; conditions: 72 h
[9] = system: NK-92 (IL-2 2.5 ng/mL); assay: as above; conditions: 72 h
[10] = system: YT (IL-2 2.5 ng/mL); assay: as above; conditions: 72 h
[11] = system: DERL-7 (IL-2 2.5 ng/mL); assay: as above; conditions: 72 h
[12] = system: NK-YS (IL-2 2.5 ng/mL); assay: as above; conditions: 72 h
[13] = system: NKL (IL-2 2.5 ng/mL); assay: as above; conditions: 72 h
[14] = system: IMC-1 (IL-2 20 ng/mL); assay: as above; conditions: 72 h
[15] = system: KHYG-1 (IL-2 2.5 ng/mL); assay: percent inhibition of viability; higher = more inhibition; conditions: 72 h
[16] = system: normal primary NK cells, pool 1 (3 donors), resting (IL-2 0 ng/mL); assay: as above; conditions: 72 h
[17] = system: normal primary NK cells, pool 1 (3 donors) (IL-2 2.5 ng/mL); assay: as above; conditions: 72 h
[18] = system: SNK-6 (IL-2 2.5 ng/mL); assay: as above; conditions: 72 h
[19] = system: normal primary NK cells, pool 3 (3 donors) (IL-2 2.5 ng/mL); assay: as above; conditions: 72 h
[20] = system: normal primary NK cells, pool 2 (3 donors) (IL-2 2.5 ng/mL); assay: as above; conditions: 72 h
[21] = system: KAI3 (IL-2 2.5 ng/mL); assay: as above; conditions: 72 h
[22] = system: NK-92 (IL-2 2.5 ng/mL); assay: as above; conditions: 72 h
[23] = system: YT (IL-2 2.5 ng/mL); assay: as above; conditions: 72 h
[24] = system: DERL-7 (IL-2 2.5 ng/mL); assay: as above; conditions: 72 h
[25] = system: NK-YS (IL-2 2.5 ng/mL); assay: as above; conditions: 72 h
[26] = system: NKL (IL-2 2.5 ng/mL); assay: as above; conditions: 72 h
[27] = system: IMC-1 (IL-2 20 ng/mL); assay: as above; conditions: 72 h
[28] = system: normal NK cells expanded with K562-aAPC; assay: drug sensitivity score (DSS) (DSS units); higher = more sensitive; extreme values may be limits of the assay; conditions: 72 h; IL-2 2.5 ng/mL
Method: as §1

O=C1CCC(N2C(=O)c3ccccc3C2=O)C(=O)N1 (configuration not stated) [Thalidomide] (max concentration tested 10000 nM)
percent inhibition of viability [%]
Conditions	1 nM	10 nM	100 nM	1000 nM	10000 nM
[1]	-14.8	-5.18	-6.96	6.59	12.7
[15]	-4.12	-6.62	0.67	6.18	10.3
[16]	6	-5.13	20	-1.84	-5.2
[17]	0.86	-2.62	18.8	-1.53	5.13
[18]	-14.3	8.65	-18.4	-31.5	-27.8
[19]	-10.6	-12.8	-2.32	1.72	4.5
[20]	-7.68	-2.29	0.16	8.57	7.78
[21]	-9.63	-11.1	-3.59	-3.95	14.6
[22]	-15.9	-8.74	-9.71	7.78	12.7
[23]	-9.26	-7.23	-5.25	-0.15	26.5
[24]	-4.35	1.66	0.7	-4.56	-10.4
[25]	-5.98	-8.88	-3.38	8.1	15.2
[26]	-18.5	-7.52	-3.52	13.7	11.1
[27]	-2.34	-2.83	3.91	5.3	12

Conditions	drug sensitivity score
[2]	0.01
[3]	0
[4]	0
[5]	0
[6]	0
[7]	0
[8]	0.11
[9]	0.43
[10]	1.05
[11]	0
[12]	0.86
[13]	0.91
[14]	0.03
[28]	0.4

Cn1cncc1[C@@](N)(c1ccc(Cl)cc1)c1ccc2c(c1)c(-c1cccc(Cl)c1)cc(=O)n2C [Tipifarnib] (max concentration tested 10000 nM)
percent inhibition of viability [%]
Conditions	1 nM	10 nM	100 nM	1000 nM	10000 nM
[1]	-0.6	11.6	28.5	39.2	75.8
[15]	-2.81	24	75.8	83	107
[16]	-0.67	17.8	34.2	56.4	93
[17]	5.62	11.4	32.4	24	96.1
[18]	-6.05	-1.97	53.1	67.8	79
[19]	-5.22	13.6	17.7	17.1	53.4
[20]	-6.39	6.93	13.5	23.8	83.5
[21]	6.75	19.1	47.3	58.3	85.1
[22]	-0.73	9.6	37.6	61.4	109
[23]	3.74	11.7	34.3	55.4	106
[24]	1.19	15	50.5	55.8	82.4
[25]	-3.65	20.6	59.3	66.9	90
[26]	-4.94	-3.92	26.4	59.5	92.4
[27]	-0.42	7.67	12.7	14.3	84.9

Conditions	drug sensitivity score
[2]	28.6
[3]	16.3
[4]	10.5
[5]	20.7
[6]	6.12
[7]	7.58
[8]	19.1
[9]	17.5
[10]	16.2
[11]	18.6
[12]	22.5
[13]	14.4
[14]	7.09
[28]	11.9

CC[C@@]1(O)C(=O)OCc2c1cc1n(c2=O)Cc2cc3c(CN(C)C)c(O)ccc3nc2-1 [Topotecan] (max concentration tested 10000 nM)
percent inhibition of viability [%]
Conditions	1 nM	10 nM	100 nM	1000 nM	10000 nM
[1]	-4.37	0.95	51.7	58.8	99.9
[15]	-8.76	-0.99	98	104	104
[16]	-1.44	14.8	4.57	2.84	73.8
[17]	-0.98	18.9	12.2	42.5	84.4
[18]	-7.26	-5.12	93	96.6	99.4
[19]	-3.05	6.63	20.6	31.7	84.1
[20]	-7.25	5.21	15.2	31.4	85.2
[21]	-7.96	6.65	82.9	69.8	100
[22]	-7.93	14.4	98	102	105
[23]	-6.41	1.19	83.4	102	105
[24]	-5.89	8.74	69.9	96.4	100
[25]	-4.31	2.83	91.2	94.4	104
[26]	-16.1	0.22	95.8	101	97.5
[27]	-3.93	2.9	98.1	99.6	100

Conditions	drug sensitivity score
[2]	30.1
[3]	4.46
[4]	10.3
[5]	29
[6]	9.14
[7]	8.28
[8]	28.5
[9]	32.8
[10]	27.7
[11]	26.9
[12]	29.2
[13]	29.9
[14]	30.6
[28]	18.3
